Source: patent US11596639B2, “Substituted indole Mcl-1 inhibitors” (Vanderbilt University, priority 2016, dated 2023)
Like-named read-outs stand apart in the source and are kept apart here.

Tests used:
[1] = target: Mcl-1 (Homo sapiens (Human), UniProt Q07820); test: Fluorescence polarization anisotropy (FPA) competition assay, FITC-Bak or FITC-Bim BH3 peptide; format: binding; conditions: read-out: Ki for Inhibition of Mcl-1 by FPA assay
[2] = test system: H929 human cancer cell lines; test: Cellular viability / proliferation (Cell TiterGlo, 72 h); format: cell-based
Procedure, shortened: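 1,000 cells/well, 10% FBS medium; compound added at 24 h, 2-fold dilutions from 50 μM top, DMSO <1% final. 72 h exposure, CellTiterGlo 30 min RT dark, luminescence read. IC50 by 4-parameter fit.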

[3] = Homo sapiens, NCI-H929, 72 h, read-out: GI50 on cellular proliferation of H929 human cancer cell lines, H929 cells, 72 h, Cell TiterGlo, 10% FBS
[4] = H929 cells, 72 h, Cell TiterGlo, 10% FBS, read-out: GI50 on cellular proliferation of H929 human cancer cell lines

Chain of Mcl-1 (Q07820 172-327): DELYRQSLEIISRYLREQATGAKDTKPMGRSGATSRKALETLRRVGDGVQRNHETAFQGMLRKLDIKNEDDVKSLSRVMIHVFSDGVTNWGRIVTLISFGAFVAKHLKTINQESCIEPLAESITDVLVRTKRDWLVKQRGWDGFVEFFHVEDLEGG

| SMILES | Ki [1] [nM] | GI50 [2, 3] [nM] | GI50 [2, 4] [nM] |
| --- | --- | --- | --- |
| Cc1cc(OCCCc2c3n(c4c(-c5c(C)nn(C)c5C)c(Cl)ccc24)[C@H](C)CN(c2cc(OCCN4CCN(C)CC4)cc4cc(C(=O)O)n(C)c24)C3=O)cc(C)c1Cl [Example 453, (R)-7-(7-Chloro-10-(3-(4-chloro-3,5-dimethylphenoxy)propyl)-4-methyl-1-oxo-6-(1,3,5-trimethyl-1H-pyrazol-4-yl)-3,4-dihydropyrazino[1,2-a]indol-2(1H)-yl)-1-methyl-5-(2-(4-methylpiperazin-1-yl)ethoxy)-1H-indole-2-carboxylic acid] | 1.7 | 330 |  |
| Cc1cc(OCCCc2c3n(c4c(-c5c(C)nn(C)c5C)c(Cl)ccc24)[C@H](C)CN(c2cccc4c(C(=O)O)cn(Cc5ccncc5)c24)C3=O)cc(C)c1Cl [Example 472, (R)-7-(7-Chloro-10-(3-(4-chloro-3,5-dimethylphenoxy)propyl)-4-methyl-1-oxo-6-(1,3,5-trimethyl-1H-pyrazol-4-yl)-3,4-dihydropyrazino[1,2-a]indol-2(1H)-yl)-1-(pyridin-4-ylmethyl)-1H-indole-3-carboxylic acid] | 1.2 | 1700 |  |
| Cc1cc(OCCCc2c3n(c4c(-c5c(C)nn(CC6CCOCC6)c5C)c(Cl)ccc24)[C@H](C)CN(c2cn(C)c4ccc(C(=O)O)cc24)C3=O)cc(C)c1Cl [Example 262, (R)-3-(7-chloro-10-(3-(4-chloro-3,5-dimethylphenoxy)propyl)-6-(3,5-dimethyl-1-((tetrahydro-2H-pyran-4-yl)methyl)-1H-pyrazol-4-yl)-4-methyl-1-oxo-3,4-dihydropyrazino[1,2-a]indol-2(1H)-yl)-1-methyl-1H-indole-5-carboxylic acid] | < 1 | 450 |  |
| Cc1cc(OCCCc2c3n(c4c(-c5c(C)nn(C)c5C)c(Cl)ccc24)[C@H](C)CN(c2cn(C)c4cc(F)c(C(=O)O)cc24)C3=O)cc(C)c1Cl [Example 348, (P, R)-3-(7-Chloro-10-(3-(4-chloro-3,5-dimethylphenoxy)propyl)-4-methyl-1-oxo-6-(1,3,5-trimethyl-1H-pyrazol-4-yl)-3,4-dihydropyrazino[1,2-a]indol-2(1H)-yl)-6-fluoro-1-methyl-1H-indole-5-carboxylic acid] | 1.8 |  | 1300 |
| CC(=O)N1CCN(S(=O)(=O)c2ccc3c(c2)c(N2C[C@@H](C)n4c(c(CCCOc5cc(C)c(Cl)c(C)c5)c5ccc(Cl)c(-c6c(C)nn(C)c6C)c54)C2=O)cn3C)CC1 [Example 278, (R)-2-(5-((4-acetylpiperazin-1-yl)sulfonyl)-1-methyl-1H-indol-3-yl)-7-chloro-10-(3-(4-chloro-3,5-dimethylphenoxy)propyl)-4-methyl-6-(1,3,5-trimethyl-1H-pyrazol-4-yl)-3,4-dihydropyrazino[1,2-a]indol-1(2H)-one] | 5.4 | 1500 |  |
| Cc1cc(N2C[C@@H](C)n3c(c(CCCOc4cc(C)c(Cl)c(C)c4)c4ccc(Cl)c(-c5c(C)nn(C)c5C)c43)C2=O)c2c(c1)cc(C(=O)O)n2C [Example 201, (R)-7-(7-Chloro-10-(3-(4-chloro-3,5-dimethylphenoxy)propyl)-4-methyl-1-oxo-6-(1,3,5-trimethyl-1H-pyrazol-4-yl)-3,4-dihydropyrazino[1,2-a]indol-2(1H)-yl)-1,5-dimethyl-1H-indole-2-carboxylic acid] | < 1 | < 200 |  |
| Cc1cc(OCCCc2c3n(c4c(-c5c(C)ncnc5C)c(Cl)ccc24)CCCN(c2cccc4cc(C(=O)O)n(Cc5ccccn5)c24)C3=O)cc(C)c1Cl [Example 279, 7-(8-Chloro-11-(3-(4-chloro-3,5-dimethylphenoxy)propyl)-7-(4,6-dimethylpyrimidin-5-yl)-1-oxo-4,5-dihydro-1H-[1,4]diazepino[1,2-a]indol-2(3H)-yl)-1-(pyridin-2-ylmethyl)-1H-indole-2-carboxylic acid] | 1 | 3300 |  |
| Cc1cc(OCCCc2c3n(c4c(-c5c(C)nn(C)c5C)c(Cl)ccc24)CCCN(c2cn(CCN4CCOCC4)c4cc(C(=O)O)ccc24)C3=O)cc(C)c1Cl [Example 89, 3-(8-Chloro-11-(3-(4-chloro-3,5-dimethylphenoxy)propyl)-1-oxo-7-(1,3,5-trimethyl-1H-pyrazol-4-yl)-4,5-dihydro-1H-[1,4]diazepino[1,2-a]indol-2(3H)-yl)-1-(2-morpholinoethyl)-1H-indole-6-carboxylic acid] | < 1 | 1300 |  |
| Cc1cc(OCCCc2c3n(c4c(-c5c(C)nn(C)c5C)c(Cl)ccc24)[C@H](C)CN(c2ccc(OCc4ccccc4)c4c2cc(C(=O)O)n4C)C3=O)cc(C)c1Cl [Example 312, (M, R)-7-(benzyloxy)-4-(7-chloro-10-(3-(4-chloro-3,5-dimethylphenoxy)propyl)-4-methyl-1-oxo-6-(1,3,5-trimethyl-1H-pyrazol-4-yl)-3,4-dihydropyrazino[1,2-a]indol-2(1H)-yl)-1-methyl-1H-indole-2-carboxylic acid] | 1.9 |  | 5700 |
| Cc1cc(OCCCc2c3n(c4c(-c5c(C)nn(C)c5C)c(Cl)ccc24)CCCN(c2cc(C(=O)O)cc4c2ccn4S(C)(=O)=O)C3=O)cc(C)c1Cl [Example 32, 4-(8-Chloro-11-(3-(4-chloro-3,5-dimethylphenoxy)propyl)-1-oxo-7-(1,3,5-trimethyl-1H-pyrazol-4-yl)-4,5-dihydro-1H-[1,4]diazepino[1,2-a]indol-2(3H)-yl)-1-(methylsulfonyl)-1H-indole-6-carboxylic acid] | < 1 | 7600 |  |
| Cc1cc(N2C[C@@H](C)n3c(c(CCCOc4cc(C)c(Cl)c(C)c4)c4ccc(Cl)c(-c5c(C)nn(C)c5C)c43)C2=O)c2c(c1)cc(C(=O)O)n2Cc1ccccn1 [Example 295, 7-[(4R)-7-chloro-10-[3-(4-chloro-3,5-dimethyl-phenoxy)propyl]-4-methyl-1-oxo-6-(1,3,5-trimethylpyrazol-4-yl)-3,4-dihydropyrazino[1,2-a]indol-2-yl]-5-methyl-1-(2-pyridylmethyl)indole-2-carboxylic acid] | < 1 | < 200 |  |
| COCCn1c(C(=O)O)cc2cccc(N3C[C@@H](C)n4c(c(CCCOc5cc(C)c(Cl)c(C)c5)c5ccc(Cl)c(-c6c(C)nn(C)c6C)c54)C3=O)c21 [Example 256, 7-[(4R)-7-chloro-10-[3-(4-chloro-3,5-dimethyl-phenoxy)propyl]-4-methyl-1-oxo-6-(1,3,5-trimethylpyrazol-4-yl)-3,4-dihydropyrazino[1,2-a]indol-2-yl]-1-(2-methoxyethyl)indole-2-carboxylic acid] | < 1 | 270 |  |
| Cc1cc(OCCCc2c3n(c4c(-c5c(C)ncnc5C)c(Cl)ccc24)CCCN(c2cccc4cc(C(=O)O)n(C)c24)C3=O)cc(C)c1Cl [Example 219, 7-[8-Chloro-11-[3-(4-chloro-3,5-dimethyl-phenoxy)propyl]-7-(4,6-dimethylpyrimidin-5-yl)-1-oxo-4,5-dihydro-3H-[1,4]diazepino[1,2-a]indol-2-yl]-1-methyl-indole-2-carboxylic acid] | 2.2 | 1200 |  |
| Cc1noc(-c2ccc3c(c2)c(N2C[C@@H](C)n4c(c(CCCOc5cc(C)c(Cl)c(C)c5)c5ccc(Cl)c(-c6c(C)nn(C)c6C)c54)C2=O)cn3C)n1 [Example 393, (R)-7-Chloro-10-(3-(4-chloro-3,5-dimethylphenoxy)propyl)-4-methyl-2-(1-methyl-5-(3-methyl-1,2,4-oxadiazol-5-yl)-1H-indol-3-yl)-6-(1,3,5-trimethyl-1H-pyrazol-4-yl)-3,4-dihydropyrazino[1,2-a]indol-1(2H)-one] | 2.3 | 1200 |  |
